Assay results published in ChEMBL document CHEMBL4359811, “Development of Potent and Selective Pyrazolopyrimidine IRAK4 Inhibitors” (J Med Chem, 2019).

Key:
[1] = Oral bioavailability in mouse at 100 mg/kg administered as suspension in 10% captisol; type: ADME, organism-based; conditions: in vivo
[2] = Protein binding in dog plasma at 5 uM incubated for 4 hrs by LC-MS/MS analysis; type: ADME, cell-free, Canis lupus familiaris; conditions: read-out: PPB (converted)
Mus musculus [3] = experiment: In vivo inhibition of IRAK4 in CpG ODN 1826 induced C57BL/6 mouse assessed as blockade of TLR9 signalling by measuring TNFalpha levels at 30 mg/kg, po treated 1 hr prior to CpG ODN 1826 stimulation and measured after 1 hr by MSD assay; type: functional; design: scale not given: the % may be the effect or the level left
[4] = AUC (infinity) in mouse at 30 mg/kg, po; type: ADME, organism-based; design: dose 30 mg/kg, time infinity, route oral; conditions: in vivo
[5] = Volume of distribution at steady state in dog at 0.3 mg/kg, iv; type: ADME, organism-based, Canis lupus familiaris; conditions: in vivo, read-out: Vdss
Mus musculus [6] = experiment: In vivo inhibition of IRAK4 in CpG ODN 1826 induced C57BL/6 mouse assessed as blockade of TLR9 signalling by measuring TNFalpha levels at 3 mg/kg, po treated 1 hr prior to CpG ODN 1826 stimulation and measured after 1 hr by MSD assay; type: functional; design: scale not given: the % may be the effect or the level left
[7] = Protein binding in rat plasma at 5 uM incubated for 4 hrs by LC-MS/MS analysis; type: ADME, cell-free; conditions: read-out: PPB (converted)
[8] = Volume of distribution at steady state in monkey at 1 mg/kg, iv; type: ADME, organism-based, Macaca mulatta; conditions: rhesus monkey, in vivo, read-out: Vdss
[9] = Half-life in dog at 1 mg/kg, po; type: ADME, organism-based, Canis lupus familiaris; conditions: in vivo
[10] = Oral bioavailability in mouse at 5 mg/kg; type: ADME, organism-based; conditions: in vivo
[11] = Half-life in mouse at 100 mg/kg, po administered as suspension in MCT; type: ADME, organism-based; conditions: in vivo
[12] = Protein binding in mouse plasma at 5 uM incubated for 4 hrs by LC-MS/MS analysis; type: ADME, cell-free; conditions: read-out: PPB (converted)
[13] = Half-life in mouse at 300 mg/kg, po administered as suspension in 10% captisol; type: ADME, organism-based; conditions: in vivo

Q: With `C[C@]1(CO)Cc2cc(NC(=O)c3cnn4cccnc34)c(N3CCOCC3)cc2O1` as the compound, how does the bioavailability [1] read?
A: The bioavailability was 49%.

Q: What about the fraction unbound at 4 h, 5 µM [2] of the same compound?
A: The fraction unbound at 4 h, 5 µM was 0.34.

Q: And the Activity (Mus musculus [3])?
A: Its Activity is -79%.

Q: What about the AUC(0-inf) [4] of the same compound?
A: The AUC(0-inf) was 17 µM·h.

Q: What about the Vd [5] of the same compound?
A: Its Vd is 8 L/kg.

Q: And the Activity (Mus musculus [6])?
A: Its Activity is -18%.

Q: And the fraction unbound at 4 h, 5 µM [7]?
A: Its fraction unbound at 4 h, 5 µM is 0.21.

Q: And the Vd [8]?
A: Its Vd is 4.4 L/kg.

Q: And the half-life [9]?
A: The half-life was 1.7 h.

Q: And the bioavailability [10]?
A: Its bioavailability is 59%.

Q: And the half-life [11]?
A: Its half-life is 1.6 h.

Q: What about the fraction unbound at 4 h, 5 µM [12] of the same compound?
A: Its fraction unbound at 4 h, 5 µM is 0.14.

Q: What about the half-life [13] of the same compound?
A: The half-life was 42 h.
